Measurements published in ChEMBL document CHEMBL5331067, “Disubstituted pyrimidine-5-carboxamide derivatives as novel HIV-1 NNRTIs: Crystallographic overlay-based molecular design, synthesis, and biological evaluation” (Eur J Med Chem, 2023).

Key:
[1] = Selectivity index, ratio of CC50 for cytotoxicity against human MT4 cells assessed as reduction in cell viability to EC50 for antiviral activity against HIV-1 RES056 infected in human MT4 cells assessed as reduction in virus induced cytopathic effect; format: toxicity, cell-based; conditions: read-out: Ratio CC50/EC50
[2] = (§1) Fold resistance, ratio of EC50 for antiviral activity against NNRTI-resistant HIV-1 harboring F227L/V106A double mutant infected in human MT4 cells assessed as virus-induced cytopathicity to EC50 for antiviral activity against HIV-1 RES056 infected in human MT4 cells assessed as reduction in virus induced cytopathic effect; format: functional
[3] = tested on: Human immunodeficiency virus 1; experiment: Antiviral activity against NNRTI-resistant HIV-1 harboring F227L/V106A double mutant infected in human MT4 cells assessed as virus-induced cytopathicity incubated for 5 days by MTT assay; format: functional, organism-based; conditions: Human immunodeficiency virus 1, MT4, 120 h
[4] = target: Human immunodeficiency virus type 1 reverse transcriptase (Human immunodeficiency virus 1, UniProt Q72547); experiment: Inhibition of wild type HIV-1 reverse transcriptase assessed as reduction of biotin-dUTP incorporation into […] using ABTS as substrate incubated for 1 hrs by ELISA analysis
[5] = as §1, with “E138K” for “F227L/V106A double”, “IIIB” for “RES056”; format: functional
[6] = tested on: Human immunodeficiency virus 1; experiment: Antiviral activity against HIV-1 RES056 infected in human MT4 cells assessed as reduction in virus induced cytopathic effect incubated for 5 days by MTT assay; format: functional, organism-based; conditions: Human immunodeficiency virus 1, RES056, MT4, 120 h
[7] = tested on: Human immunodeficiency virus 1; experiment: Antiviral activity against NNRTI-resistant HIV-1 harboring K103N mutant infected in human MT4 cells assessed as virus-induced cytopathicity incubated for 5 days by MTT assay; format: functional, organism-based; conditions: Human immunodeficiency virus 1, MT4, 120 h
[8] = tested on: Human immunodeficiency virus 1; experiment: Antiviral activity against NNRTI-resistant HIV-1 harboring Y181C mutant infected in human MT4 cells assessed as virus-induced cytopathicity incubated for 5 days by MTT assay; format: functional, organism-based; conditions: Human immunodeficiency virus 1, MT4, 120 h
[9] = tested on: Human immunodeficiency virus 1; experiment: Antiviral activity against NNRTI-resistant HIV-1 harboring E138K mutant infected in human MT4 cells assessed as virus-induced cytopathicity incubated for 5 days by MTT assay; format: functional, organism-based; conditions: Human immunodeficiency virus 1, MT4, 120 h
[10] = Selectivity index, ratio of CC50 for cytotoxicity against human MT4 cells assessed as reduction in cell viability to EC50 for antiviral activity against NNRTI-resistant HIV-1 harboring F227L/V106A double mutant infected in human MT4 cells; format: toxicity, cell-based; conditions: read-out: Ratio CC50/EC50
[11] = as §1, with “Y188L” for “F227L/V106A double”, “IIIB” for “RES056”; format: functional
[12] = tested on: Human immunodeficiency virus 1; experiment: Antiviral activity against NNRTI-resistant HIV-1 harboring L100I mutant infected in human MT4 cells assessed as virus-induced cytopathicity incubated for 5 days by MTT assay; format: functional, organism-based; conditions: Human immunodeficiency virus 1, MT4, 120 h
[13] = Selectivity index, ratio of CC50 for cytotoxicity against human MT4 cells assessed as reduction in cell viability to EC50 for antiviral activity against NNRTI-resistant HIV-1 harboring E138K mutant infected in human MT4 cells; format: toxicity, cell-based; conditions: read-out: Ratio CC50/EC50
[14] = Selectivity index, ratio of CC50 for cytotoxicity against human MT4 cells assessed as reduction in cell viability to EC50 for antiviral activity against NNRTI-resistant HIV-1 harboring Y181C mutant infected in human MT4 cells; format: toxicity, cell-based; conditions: read-out: Ratio CC50/EC50
[15] = tested on: Human immunodeficiency virus 1; experiment: Antiviral activity against HIV-1 IIIB infected in human MT4 cells assessed as reduction in virus induced cytopathic effect incubated for 5 days by MTT assay; format: functional, organism-based; conditions: Human immunodeficiency virus 1, IIIB, MT4, 120 h
[16] = Cytotoxicity against human MT4 cells assessed as cell growth inhibition incubated for 5 days by MTT assay; format: toxicity, cell-based; conditions: time 5 day
[17] = Selectivity index, ratio of CC50 for cytotoxicity against human MT4 cells assessed as reduction in cell viability to EC50 for antiviral activity against NNRTI-resistant HIV-1 harboring L100I mutant infected in human MT4 cells; format: toxicity, cell-based; conditions: read-out: Ratio CC50/EC50
[18] = Selectivity index, ratio of CC50 for cytotoxicity against human MT4 cells assessed as reduction in cell viability to EC50 for antiviral activity against NNRTI-resistant HIV-1 harboring Y188L mutant infected in human MT4 cells; format: toxicity, cell-based; conditions: read-out: Ratio CC50/EC50
[19] = as §1, with “Y181C” for “F227L/V106A double”, “IIIB” for “RES056”; format: functional
[20] = as §1, with “L100I” for “F227L/V106A double”, “IIIB” for “RES056”; format: functional
[21] = as §1, with “K103N” for “F227L/V106A double”, “IIIB” for “RES056”; format: functional
[22] = as §1, with “IIIB” for “RES056”; format: functional
[23] = tested on: Human immunodeficiency virus 1; experiment: Antiviral activity against NNRTI-resistant HIV-1 harboring Y188L mutant infected in human MT4 cells assessed as virus-induced cytopathicity incubated for 5 days by MTT assay; format: functional, organism-based; conditions: Human immunodeficiency virus 1, MT4, 120 h
[24] = Selectivity index, ratio of CC50 for cytotoxicity against human MT4 cells assessed as reduction in cell viability to EC50 for antiviral activity against NNRTI-resistant HIV-1 harboring K103N mutant infected in human MT4 cells; format: toxicity, cell-based; conditions: read-out: Ratio CC50/EC50
[25] = Selectivity index, ratio of CC50 for cytotoxicity against human MT4 cells assessed as reduction in cell viability to EC50 for antiviral activity against HIV-1 IIIB infected in human MT4 cells assessed as reduction in virus induced cytopathic effect; format: toxicity, cell-based; conditions: read-out: Ratio CC50/EC50

| SMILES | selectivity ratio [1] | Ratio EC50 [2] | EC50 [3] [nM] | IC50 [4] [nM] | Ratio EC50 [5] | EC50 [6] [nM] | EC50 [7] [nM] | EC50 [8] [nM] | EC50 [9] [nM] | selectivity ratio [10] | Ratio EC50 [11] | EC50 [12] [nM] | selectivity ratio [13] | selectivity ratio [14] | EC50 [15] [nM] | CC50 at 120 h [16] [nM] | selectivity ratio [17] | selectivity ratio [18] | Ratio EC50 [19] | Ratio EC50 [20] | other results |
| --- | --- | --- | --- | --- | --- | --- | --- | --- | --- | --- | --- | --- | --- | --- | --- | --- | --- | --- | --- | --- | --- |
| Cc1cc(C#N)cc(C)c1Oc1nc(NC2CCN(c3ccc(NS(=O)(=O)C4CC4)cc3)CC2)ncc1C(N)=O | 4920 | 5.5 | 34 | 38 | 96.2 | 42 | 9 | 45 | 734 | 6070 | 4.5 | 65 | 283 | 4570 | 8 | 208000 | 3190 | 6000 | 6 | 8.5 | Ratio EC50 [21]: 1.2; Ratio EC50 [22]: 4.5; EC50 [23]: 35 nM; selectivity ratio [24]: 23400; selectivity ratio [25]: 27200 |
| Cc1cc(C#N)cc(C)c1Oc1nc(Nc2ccc(C#N)c(F)c2)ncc1C(N)=O | 5 | 663.7 | 3110 | 170 | 4.7 | 7190 | 20 | 180 | 51 | 11 | 9.4 | 50 | 681 | 194 | 11 | 34900 | 698 | 345 | 16.6 | 4.6 | Ratio EC50 [21]: 1.8; Ratio EC50 [22]: 287.6; EC50 [23]: 101 nM; selectivity ratio [24]: 1770; selectivity ratio [25]: 3230 |
